Assay [1] relates to DAOY cells. Briefly: Cell viability MTT assay in DAOY cells. Type of assay: cell-based, human. To be noted: 48-72 hours. Here is the method:
For cell viability assay, DAOY cells from SHH-MB group and HD-MB03 from Group 3 MB were exposed to new analogs in a range of concentrations. In brief, cells were seeded in 96-well plate with a density of 3×10^3 cells/well density for 16 hours. Cells were then treated with different drug concentrations for 48-72 hours. MTT assay reagent was added to the cells and after incubation for 4 hours, formazan crystals were dissolved in 200 μL DMSO, and the absorbance was determined using a microplate reader (Molecular Devices Me5). The IC50 was determined by nonlinear least square regression by performing each experiment in triplicate.
In general terms: Formazan colour is commonly taken as a measure of viable cells.

For another assay, the system named is MB cells. Briefly: Scratch (wound) cell migration assay. Format: cell-based, human. Particulars: 0 to 24 hours, vs untreated MB cells. As to the method: Regarding the cell migration, scratch distances and width closure were measured between images from time 0 to 24 hours. After 24 hours, the untreated MB cells migrated and covered approximately 50% to 60% of the wound area quantified at time zero. […] Initial wound edges marked initial cell migration and were used to identify the decrease in wound width throughout the experiment. Migration distances were shown separately during the period of 0-24 hours. A significant difference in migration distance was found for the treated group compared to the control, while no difference in motility was found within the treated groups.

Assay [2] has as its system DAOY cells. The assay is described as follows: Cell cycle analysis in DAOY cells. Format: cell-based, human. To be noted: 5 μM, 48 hours; control 52.8%. The text has this: FIGS. 3A-3F show the effect of MDP5 treatment on cell cycle analysis, induction of apoptosis, and colony formation assay in MB cells. […] Histograms show the quantitative analysis of cell cycle assay for DAOY (FIG. 3A) and HD-MB03 (FIG. 3B) cells (n=5; mean±S.D., p<0.05). […] FIG. 3C provides images of cells treated with the indicated compounds. […] FIGS. 3D and 3E provide graphs of the apoptotic assay showing higher numbers of apoptotic cells in MDP5 treated groups (n=5; mean±S.D.; p<0.05). FIG. 3F provides a graph of the relative expression of BCL2 and MYCN target genes after treatment, as determined by RT-PCR.
Cell cycle distribution was determined in proliferating MB cells. […] Cells were harvested with 0.25% EDTA-free trypsin (Gibco) and washed twice in ice-cold PBS. Control and treated cells (0.1×10^6) were stained with FxCycle™ PI/RNase Staining Solution (ThermoFisher Scientific) and analyzed for DNA content via flow cytometry.

Assay [3] has as its system DAOY cells. The assay is described as follows: Annexin V/PI apoptosis assay in DAOY cells. Type of assay: cell-based, human. Particulars: 48 hours of treatment; untreated 25.61%. Here is the method:
(§1) For apoptosis assay, the cells were collected as above and stained with 500 μL 1× binding buffer containing 5 μL annexin V-FITC and 10 μL propidium iodide (PI) in the dark for 5 minutes. Flow cytometry (FACSCalibur™ cytometer, BD Biosciences) was performed to quantify and calculate the cell apoptosis rate. AV-FITC values were set horizontally, and PI values were set as vertical axes. All experiments were performed in triplicate.

The test system of another assay is HD-MB03 cells. The assay is described as follows: Annexin V/PI apoptosis assay in HD-MB03 cells. Type of assay: cell-based, human. Particulars: 48 hours of treatment; untreated 29.76%. As to the method: as §1
The test system of another assay is HD-MB03 and DAOY cells. The assay is described as follows: Western blot of target proteins. Format: cell-based, human. To be noted: for GLI1 and GLI2 protein expression: HD-MB03 and DAOY cells. As to the method: FIGS. 4A and 4B provide images of western blot analyses of target proteins after HDMB03 and DAOY cells were incubated with 5.0 μM of the indicated compounds for 48 hours. FIG. 4C (HD-MB03) and 4D (DAOY) provide western blot images which show the effects of MDP5 treatment on target proteins including GLI1 and GLI2. FIG. 4E provides representative confocal images of DAOY and HD-MB03 spheroids after treatment with 5.0 μM MDP5. […] Spheroids were stained for live (calcein AM) and dead (ethidium homodimer-1) cells after 7 days of treatment. Scale bars=200 μm. […] Next, cells were incubated with APC-CD15 for 30 minutes on ice in the dark. Before FACS analysis, samples were washed thrice with a staining buffer. FIG. 4G provides a graph showing the quantitation of CD15+ cells (n=3; p<0.05, control vs. treatment groups).
The whole protein from each treated group was extracted using RIPA buffer containing a cocktail of protease inhibitors (Sigma-Aldrich) for protein level determination. Protein concentration was determined using a BCA assay (Peirce). Next, 40 μg protein was subject to SDS-PAGE in a 10% gel. Following the transfer of targeted proteins onto polyvinylidene difluoride sheets, the membranes were washed with Tris-buffered saline plus Tween® 20 (TTBS; cat. no. WLA025; Wanleibio Co., Ltd.) for 5 minutes and then blocked with skimmed milk powder solution for 1 hour. Primary antibodies against Gli1 (1:1000), Gli2 (1:1000), MYCN (1:1,000), p-MYCN (1:1,000), Bcl-2 (1:1000), Bax (1:1000), p-PI3K (1:500), PI3K (1:1000), p-Akt (1:500), Akt (1:1000), Cyclin D1 (1:1000), and β-actin (1:1,000) were added and the membranes were incubated at 4° C. overnight. After an additional four washes with TBST, secondary IgG antibodies conjugated to horseradish peroxidase (1:5,000) were incubated with the membranes for 45 minutes at 37° C. Following a further six washes with TBST, the blots were developed using ECL start Western blotting detection kit (GE Healthcare) and the results were recorded in the iBright™ FL100 (Invitrogen). The relative expression levels of these proteins in different groups were calculated with the iBright™ software.
On the technique in general: Immunoblotting shows a protein as a band on a membrane.

For assay [4], the system named is DAOY cell generated orthotopic MB. The assay is described as follows: Intracranial orthotopic MB xenograft model. Type of assay: in vivo, NSG mice. Particulars: for tumor at cerebellum region by H&E and Ki-67 IHC: vehicle-treated vs treated mice. Here is the method:
For the orthotopic MB model, stable luciferase-expressing DAOY cells (0.1×10^6) were used to generate the orthotopic MB tumor in NSG mice (Kumar, et al. (2021) Biomaterials 278:121138). Bioluminescence imaging using IVIS (Spectrum) was done to monitor the tumor growth weekly after implantation surgery.
A total of seven injections were given, and the mouse body weights were measured before every injection. The tumor growth was monitored by calipers in the case of the xenograft model and by IVIS imaging for the orthotopic model. For histological examination, the major organs of representative mice from each animal group were dissected and stained with H&E. Tissues after being fixed with 10% paraformaldehyde solution for 24 hours were embedded in 5 μm thick sections of paraffin, and were stained for different proteins. Stained slides were imaged at 40× magnification using an iScan HT Slide Scanner (Ventana Medical Systems, Inc, AZ).
Next, it was tested whether MDP5 treatment suppresses MB growth in an intracranial orthotopic xenograft model. DAOY cells stably expressing green fluorescent protein (GFP)/luciferase were injected into the cerebella of NSG mice. After twenty-one days of implantation, the tumor signal was measured with IVIS, and animals were divided into the vehicle (propylene glycol) or MDP5 treated groups. A drug solution was injected every three days for 28 days, and bioluminescence imaging was performed once a week.

“Also recorded” adds a separate entry of the source.

Usually IC50 stands for the point on the concentration scale where inhibition reaches its midpoint. A lower IC50 goes with greater potency in that assay.

The compound `O=C(/C=C/N1CCOCC1)c1cccc(-c2cc3c(cc2Br)OCCO3)c1O` [MDP1, (E)-1-(3-(7-bromo-2,3-dihydrobenzo [b][1,4]dioxin-6-yl)-2-hydroxyphenyl)-3-morpholinoprop-2-en-1-one] registered a 50% inhibitory concentration (IC50) in the assay with DAOY cells [1] (Homo sapiens, Daoy) of 5.51 µM. Besides, in the assay with MB cells, the “cell migration into wound area” value is recorded as “lesser migration”. Further, in the assay on DAOY cells [2], the “cells in the G1 phase, DAOY” value is 40.1%. Moreover, in the assay on DAOY cells [3], the “percentage of apoptotic cells, DAOY” value amounted to 61.31%. Besides, the “percentage of apoptosis, HD-MB03” value in the assay on HD-MB03 cells is 65.66%. Besides, the “GLI1 and GLI2 protein expression” value in the assay with HD-MB03 and DAOY cells is listed as “decrease in levels of both proteins”.
Consider `O=c1cc(N2CCOCC2)oc2c(-c3ccc4c(c3)OCCO4)cccc12` [MDP5, 8-(2,3-dihydrobenzo [b][1,4]dioxin-6-yl)-2-morpholino-4H-chromen-4-one], for which, in the assay with DAOY cells [1], 5.5 µM corresponded to half-maximal inhibition (IC50). Also, the midpoint of inhibition in the assay on DAOY cells [1] (Homo sapiens, Daoy), the IC50, lay at 5.57 µM. Also, the “cell migration into wound area” value in the assay with MB cells is “lesser migration”. Moreover, in the assay with DAOY cells [2], the “cells in the G1 phase, DAOY” value is 73.2%. For the same compound, the “percentage of apoptotic cells, DAOY” value in the assay on DAOY cells [3] was 70.35%. For the same compound, the “percentage of apoptosis, HD-MB03” value with HD-MB03 cells is 65.15%. Further, in the assay on HD-MB03 and DAOY cells (5.0 μM, 48 hours), the “Cyclin D1, p-AKT (Ser473) and p-PI3K protein levels” value is “reduced”; the “p-MYCN (Ser54) level” value is reported as “explicitly induced”. The “GLI1 and GLI2 protein expression” value in the assay on HD-MB03 and DAOY cells is “decrease in levels of both proteins”. In addition, in the assay with HD-MB03 and DAOY cells (among treated HD-MB03 cells), the “GLI1 protein expression in HD-MB03 cells” value is “largest reduction in GLI1 protein expression”. For the same compound, the survival entry in assay [4] (control animals all dead by day 35) is recorded as “four animals out of five survived up to 49 days; also recorded: prolonged the survival”. In addition, the “orthotopic tumor growth (IVIS imaging)” value in assay [4] (injection every three days for 28 days) is given as “significant effect on the suppression of tumor growth; also recorded: significantly suppressed tumor growth in vivo”. The “tumor at cerebellum region by H&E and Ki-67 IHC” value in assay [4] is “much larger tumor at the cerebellum region of the vehicle-treated mouse”. For the same compound, the “bioluminescence (BLI) signal” value in assay [4] (vs rapid increase in control animals) is recorded as “low BLI signal”.
For the compound `O=c1cc(N2CCOCC2)oc2c(-c3ccc4c(c3)OCCO4)csc12` [SF2523, reference compound], in the assay with DAOY cells [1], the 50% inhibitory concentration (IC50) worked out at 12.6 µM. Also, the “cell migration into wound area” value in the assay on MB cells was “lesser migration”. In addition, the “cells in the G1 phase, DAOY” value with DAOY cells [2] is listed as 73.1%. Besides, in the assay on DAOY cells [3], the “percentage of apoptotic cells, DAOY” value was found to be 56.50%. Further, the “percentage of apoptosis, HD-MB03” value in the assay on HD-MB03 cells was 54%. Also, the GLI2 protein accumulation result in the assay with HD-MB03 and DAOY cells (compared with other treatments) is given as “exceeded all other treatment options in terms of lowering GLI2 protein accumulation”. The “tumor at cerebellum region by H&E and Ki-67 IHC” value in assay [4] is listed as “much larger tumor at the cerebellum region of the vehicle-treated mouse”.

The values above are taken from US20260069599A1, “INHIBITORS OF BROMODOMAIN-CONTAINING PROTEIN 4 AND PHOSPHOINOSITIDE 3-KINASE” (Board of Regents of the University of Nebraska, priority 2022, published 2026).
